Assay results published in US5256824A, “Substituted-amine compound and a process for the preparation thereof” (Fujisawa Pharmaceutical Co., Ltd., priority 1990, dated 1993).

Tests used:
[1] = system: Urinary Bladder Contractions Induced by Water Filling; assay: Inhibition of Urinary Bladder Contractions Induced by Water Filling in Rats; type: in vivo, Male Sprague-Dawly rats; settings: Rattus norvegicus; intravenous, anesthetized rats (urethane), hyperactive bladder by water filling
Text: Test on Inhibition of Urinary Bladder Contractions Induced by Water Filling in Rats
Male Sprague-Dawly rats, weighing 240-450 g, were anesthetized with urethane 1.0 g/kg s.c. The bladder was exposed through a midline incision in the abdomen for the recording of pressure within the bladder as follows; a balloon attached to one end of a stainless steel tube (O.D., 1.2 mm, 5 cm in length) was inserted into the bladder through a small incision in the bladder dome. The other end of the tube was connected to a pressure-transducer. The ureters were ligated and cut, and the proximal cut end was cannulated with polyethylene tubing and the urine was led outside.
Hyperactive urinary bladder (hyperactive contractions of the detrusor muscle) was induced by water filling of the bladder. Therefore, the balloon in the bladder was filled with water of a volume which caused a resting pressure of about 10 mmHg. Systemic blood pressure and heart rate were monitored from the common carotid artery.
When the contractile responses to water filling became constant, test compounds were administered intravenously.

Na channel = Na channel blocking activity (local anesthetic effect on the corneal blink reflex); type: in vivo, Male Japanese white rabbits; settings: 1.0% solution in saline, 50 μl drops to one eye
Description: Test on Na channel blocking activity
Male Japanese white rabbits weighing 2.0-3.0 kg were to evaluate the local anesthetic effect of test compound on the corneal blink reflex. Corneal reflexes were elicited by pressing a flexible monofilament (rabbit whisker) against the cornea. 1.0% Test compound solution in saline was applied to one eye (50 μl drops) and the contralateral eye received as a control. Corneal blink responses were scored at 5, and 15 minutes after test compound application.
Local anesthetic activities were expressed as an inhibition percent of blink responses.

SMILES | ED30 [1] [mg/kg] | Inhibition % of blink responses (Na channel; 5 minutes after application) [%] | Inhibition % of blink responses (Na channel; 15 minutes after application) [%]
CC(C)(C)NC1C=CC(c2ccccc2)(c2ccccc2)C1.CS(=O)(=O)O (single isomer, unassigned; (-)) [(-)-N-t-butyl-4,4-diphenyl-2-cyclopentenylamine methanesulfonate] | 0.18 |  | 
CC(C)(C)NC1C=CC(c2ccccc2)(c2ccccc2)C1.Cl (single isomer, unassigned; (-)) [(-)-N-t-butyl-4,4-diphenyl-2-cyclopentenylamine hydrochloride] |  | 100 | 100
